Measured values taken from patent USRE33375E, “Treatments employing drug-containing matrices for introduction into cellular lesion areas” (Matrix Pharmaceuticals, Inc., priority 1988, dated 1990).
Structures can show the parent of a compound that is named as a salt. Marks after values point to notes of the source that are not given here.

What was measured:
[1] = system: RIF-1 tumor; assay: RIF-1 tumor regrowth delay, 5-fluorouracil-matrix implant in combination with X-rays; assay type: in vivo, female C3H mice; details: 5-FU 75 mg/Kg, i.p.
Procedure: In the next experiment 5-fluorouracil-matrix implant in combination with X-rays was evaluated. […] When the tumors reached volumes of 150 mm^3, they were divided into the following groups, (4-6 mice/group):
2. X-rays (1000 rad.) alone
3. Collagen-matrix (CM) i.t. 5 min. before X-rays
4. 5-Fluorouracil (5-FU) (75 mg/Kg) i.p.
6. 5-FU i.p. 5 min before X-rays
(§1) Tumor bearing mice were irradiated in lead jigs exposing only the tumor and overlying skin with a 250 kVp X-ray machine at a dose rate of 120 rad/min. The tumors of the treated and untreated mice were measured three times per week and assayed for regrowth delay and skin reactions as previously described.

[2] = system: uninjected contralateral fibrosarcoma (RIF-1 cells); assay: Regrowth delay of the uninjected contralateral fibrosarcoma; assay type: in vivo, murine; female C3H mice
Procedure: A transplantable experimental murine fibrosarcoma (2×10^5 RIF-1 cells) was grown intradermally in the flank of 5 month old female C3H mice (Bantin and Kingman, Fremont, Calif.). Cis-diamine dichloroplatinum (II) (cis-Pt) (Sigma Chemical Co., St. Louis, Mo.) was dissolved in sterile saline at concentrations of 0.8, 1.6 and 3.2 mg/ml and mixed 1:1 with bovine collagen (BC) (36 mg/ml) in PBS 20 mM phosphate, 140 mM NaCl (Collagen Corp., Palo Alto, Calif.). Doses of 2, 4 and 8 mg/kg host of cis-Pt were delivered in 0.1 ml of the collagenous drug mixture to the center of the tumor growing in the flank (intratumorally, i.t.), and the tumor measured. The growth of a second uninjected tumor on the opposing flank of the same mouse was also measured. In addition, cis-Pt dissolved in PBS without collagen was administered intraperitoneally (i.p.) to other tumor-bearing mice (4 tumors/group) to monitor the effects on tumor growth of the drug without collagen. Furthermore, the effect of bovine collagen on tumor growth was also studied by injection of 0.1 ml of collagen, (18 mg/ml) into the experimental fibrosarcomas, as previously described. The growth of the tumors was monitored three times per week by caliper measurements of three perpendicular diameters of the tumor and calculating tumor volume from the formula
*Regrowth Delay determined as the time (days) for tumors to grow to four
times their initial treatment volume (150 mm^3).
(§2) In the next study 5-fluorouracil (5-FU) (Sigma Chem. Co., St. Louis, Mo.) with and without epinephrine (Sigma) suspended in saline by sonication (60 mg/ml) and mixed 1:1 with bovine collagen (BC) (Collagen Corp., Palo Alto, Calif.) (36 mg/ml) or normal saline. The subjects were 25 gm 12 week-old female C3H/He mice (Bantin and Kingman, Fremont, Calif.) bearing the transplatable experimental murine fibrosarcoma propagated intradermally as previously described.
(§3) The adriamycin in distilled water (4.45 mg/ml) was mixed with 36 mg/ml bovine collagen (BC) 1:1 to yield a composition ratio of 2.25 mg adriamycin:18 mg BC/ml.
^3 Contralateral Tumor RD (CRD). Time (days) required for untreated
contralateral tumors to grow to 3× its original treatment volume
(~150 mm^3). Decreasing RD indicate enhanced regionalization of
drug injected when compared to RD.
(§4) In the next study vincristine (VCR) was dissolved in saline (0.6 mg/ml) by sonication and mixed 1:1 with bovine collagen (36 mg/ml). Otherwise, the procedure was the same.
In the next study a combination of bleomycin sulfate (Sigma Chemical Co., St. Louis, Mo.) (15 mg/kg) and epinephrine (5 mg/kg) employed in a bovine collagen composition were evaluated for antitumor effect in the transplantable experimental murine fibrosarcoma model previously described. […]

[3] = system: experimental murine fibrosarcoma; assay: Tumor regrowth delay on weekly treatment (curative potential); assay type: in vivo, murine; female C3H/He mice
Procedure: (§5) In another experiment the curative potential of drug matrix formulations was evaluated in the experimental murine fibrosarcoma model. Briefly, female C3H/He mice bearing a single experimental tumor produced as previously described were treated at weekly intervals with formulations containing 5-fluorouracil (50 mg/kg); bovine collagen BC (Collagen Corp., Palo Alto, Calif.); epinephrine (Sigma Chemical Co., St. Louis, Mo.); and PBS. WBC's were determined on Day 4 following each treatment cycle and skin reaction on […] after each treatment cycle. Treatment was discontinued for all grops when 3 of 4 experiment groups reach 4×initial tumor volume. When tumors reached a volume of 150 mm^3 the mice were randomly assigned to the following groups:
(§6) 2. 5-FU-PBS i.p.; 5-FU (23 mg/ml) was combined 1:1 with PBS; 0.1 ml injected/mouse i.p.
(§7) 3. 5-FU-PBS i.t.; 5-FU (23 mg/ml) was combined 1:1 with PBS; 0.1 ml injected/tumor i.t.
(§8) 4. 5-FU-BC i.t.; 5-FU (23 mg/ml) was combined 1:1 with bovine collagen (36 mg/ml); 0.1 ml injected i.t.

[4] = system: white blood cells; assay: White blood cell count in tumor-bearing mice
Procedure: as §2
(§9) On day four post-treatment, white blood cells (wbc) were counted by sampling blood from the tail, dilution in Turk's solution and counting in a hemocytometer. On day eight post-treatment, skin reaction is overlying tissue was graded for untoward response.
as §3
^4 White Blood Cells measured on Day 4 post injection by sampling fro
the tail of treatment mice.
as §4
In the next study a combination of bleomycin sulfate (Sigma Chemical Co., St. Louis, Mo.) (15 mg/kg) and epinephrine (5 mg/kg) employed in a bovine collagen composition were evaluated for antitumor effect in the transplantable experimental murine fibrosarcoma model previously described.
as §5, §6, §7, §8
(§10) In another experiment the influence of matrix composition on antitumor activity of 5-fluorouracil (100 mg/kg) was evaluated in the experimental murine fibrosarcoma model previously described. 5-FU (Sigma Chemical Co., St. Louis, Mo.) was combined as described below with bovine collagen BC (Collagen Corp., Palo Alto, Calif.); bovin fibronogen (95% clottable, Sigma), bovine thrombin (2000NIH units/mg, Sigma) and Ringer's Solution For Injection (RFI, Abbott Labs., North Chicago, Ill.). When tumors reached a volume of 150 mm^3 the mice (Bantin and Kingman, Fremont, Calif.) were assigned randomly to the following groups, (3-4 mice/group):
(§11) 3. 5-FU-Fibrinogen: 5-FU (36 mg/ml) combined 1:1 with the fibrinogen preparation described in 2 above, 0.1 ml i.t.
(§12) 4. 5-FU-BC-Fibrinogen: 5-FU (36 mg/ml) combined 1:1 with a fibrinogen-BC preparation consisting of fibrinogen (30 mg/ml); BC (36 mg/ml) dispersed in RFI containing 1 NIH unit of thrombin activity/ml, 0.1 ml i.t.

[5] = system: skin overlying the tumor; assay: Skin reaction of the skin overlying the tumor
Procedure: as §9
(§13) The skin reaction is scored as follows: […]
as §13, §5, §10, §11, §12
In the next experiment 5-fluorouracil-matrix implant in combination with X-rays was evaluated. Single RIF-1 tumors were grown on the back of female C3H mice (12-16 weeks) (Bantin and Kingman, Fremont, Calif.) as previously described. When the tumors reached volumes of 150 mm^3, they were divided into the following groups, (4-6 mice/group):
as §1

[6] = system: experimental murine fibrosarcoma (RIF-1 cells); assay: Regrowth delay of the treated transplantable murine fibrosarcoma; assay type: in vivo, murine; female C3H mice
Procedure: times their initial treatment volume (150 mm^3). Increasing values
indicate enhanced therapeutic effect.
When the tumors reached a volume of 150 mm^3, the mice were assigned randomly to the following groups (4-6 mice per group): (1) untreated controls; (2) 5-FU (100 mg/kg), i.p., 0.1 ml/mouse; (3) 5-FU (100 mg/kg), i.t., 0.1 ml/tumor; (4) 5-FU-BC (100 mg 5-FU/kg dispersed in BC (18 mg/ml)), i.t., 0.1 ml/tumor; 5-FU-EPI-BC (100 mg 5-FU/kg) 5 mg EPI/kg dispersed in BC (18 mg/ml), i.t., 0.1 ml/tumor.
In the next study doxorubicin-HCl (ADM) (Adriamycin) was studied using the above-described protocol. The adriamycin in distilled water (4.45 mg/ml) was mixed with 36 mg/ml bovine collagen (BC) 1:1 to yield a composition ratio of 2.25 mg adriamycin:18 mg BC/ml.
^2 Tumor Regrowth Delay (RD). Time (days) required for tumors to grow
to 3 × its original treatment volume (~150 mm^3).
Increasing RD indicate increased tumor cell killing.

[7] = Acute animal toxicity / survival after injection; details: 15 mg/kg
Procedure: as §2, §3

[8] = 5-FU 100 mg/kg, i.p., mean ± S.E.
[9] = 5-FU 100 mg/kg, i.t. (± EPI 5 mg/kg), mean ± S.E.
[10] = 5-FU 50 mg/kg on Days 0, 8 and 16, i.p.
[11] = 5-FU 50 mg/kg on Days 0, 8 and 16, i.t. (± Epinephrine 5 mg/kg)
[12] = BLM 15 mg/kg, i.p., mean ± S.E.
[13] = BLM 15 mg/kg, i.t. (± EPI 5 mg/kg), mean ± S.E.

O=c1[nH]cc(F)c(=O)[nH]1 [5-FU, 5-fluorouracil]
2× Tumor Regrowth Delay ([1]; 5 min before X-rays (1000 rad)): 12.6 ± 2.8 days
2× Tumor Regrowth Delay ([1]; no X-rays): 8.5 ± 1.1 days
Untreated Contralateral Regrowth Delay [2, 8]: 13.1 ± 1.4 days
Untreated Contralateral Regrowth Delay [2, 9]: 11.1 ± 0.6 days
Tumor Regrowth 4 × [3, 10]: 10.3 ± 1.3 days
Tumor Regrowth 4 × [3, 11]: 14.9 ± 3.8 days
WBC D-12 [4, 10]: 109 ± 28
WBC D-12 [4, 11]: 107 ± 25
White Blood Cells/mm^3 ([4]; 5-FU 100 mg/kg, i.p., day four post-treatment): 4.5 ± 0.6 Cells/mm^3 (× 10^3)
White Blood Cells/mm^3 ([4]; 5-FU 100 mg/kg, i.t. (± EPI 5 mg/kg), day four post-treatment): 3.5 ± 0.5 Cells/mm^3 (× 10^3)
Skin Reaction D-8 [5, 10]: 1.2 ± 1.1
Skin Reaction D-8 [5, 11]: 1.0 ± 0.6
Skin Reaction ([5]; 5-FU 75 mg/Kg, i.p. + X-rays (1000 rad), scored as previously described (0-3)): 2
Skin Reaction ([5]; 5-FU 75 mg/Kg, i.p., no X-rays, scored as previously described (0-3)): 2
Skin Reaction ([5]; 5-FU 100 mg/kg, i.p., Day 8, 0 = no effect, 1 = superficial inflammation, 2 = scab, 3 = ulcer): 0.7 ± 0.4
Skin Reaction ([5]; 5-FU 100 mg/kg, i.t. (± EPI 5 mg/kg), Day 8, 0 = no effect, 1 = superficial inflammation, 2 = scab, 3 = ulcer): 0
Tumor Regrowth Delay [6, 8]: 13.1 ± 1.4 days
Tumor Regrowth Delay [6, 9]: 14.5 ± 0.9 days

COc1cccc2c1C(=O)c1c(O)c3c(c(O)c1C2=O)C[C@@](O)(C(=O)CO)C[C@@H]3O[C@H]1C[C@H](N)[C@H](O)[C@H](C)O1 [Free ADM, doxorubicin-HCl]
Tumor Regrowth Delay, Contralateral ([2]; ADM 15 mg/kg, i.t., untreated contralateral tumor, time to 3× original treatment volume (~150 mm^3)): 8.3 ± 0.75 days
White Blood Cells/mm^3 ([4]; ADM 15 mg/kg, i.t., Day 4 post injection): 4.1 ± 0.69 Cells/mm^3 (× 10^3)
toxicity of intratumoral injection ([7]; intratumoral injection): non-toxic
survival ([7]; mouse, in vivo): 100%
mortality ([7]; mouse, in vivo, ip): 75%
survival ([7]; mouse, in vivo, ip): 25%
Skin Reaction ([5]; ADM 15 mg/kg, i.p., Day 8 post injection, 0 = no effect, 1 = superficial inflammation, 2 = scab, 3 = ulcer): 1.5 ± 0.5
Skin Reaction ([5]; ADM 15 mg/kg, i.t., Day 8 post injection, 0 = no effect, 1 = superficial inflammation, 2 = scab, 3 = ulcer): 2.0
Tumor Regrowth Delay, Treated ([6]; ADM 15 mg/kg, i.t., time to 3 × original treatment volume (~150 mm^3)): 13.7 ± 1.7 days

CC[C@]1(O)C[C@H]2CN(CCc3c([nH]c4ccccc34)[C@@](C(=O)OC)(c3cc4c(cc3OC)N(C=O)[C@H]3[C@@](O)(C(=O)OC)[C@H](OC(C)=O)[C@]5(CC)C=CCN6CC[C@]43[C@@H]65)C2)C1 [VCR, vincristine]
Untreated Contralateral Regrowth Delay ([2]; VCR 2 mg/kg, i.p.): 10.6 ± 2.0 days
White Blood Cells/mm^3 ([4]; VCR 2 mg/kg, i.p.): 7.4 ± 1.3 Cells/mm^3 (× 10^3)
Skin Reaction ([5]; VCR 2 mg/kg, i.p., scored as in the preceding studies (0-3)): 0.6 ± 0.4
Tumor Regrowth Delay ([6]; VCR 2 mg/kg, i.p.): 10.6 ± 2.0 days

bleomycin sulfate [BLM]
Untreated Contralateral Regrowth Delay [2, 12]: 7.5 ± 0.9 days
Untreated Contralateral Regrowth Delay [2, 13]: 7.0 ± 0.7 days
Tumor Regrowth Delay [6, 12]: 7.5 ± 0.9 days
Tumor Regrowth Delay [6, 13]: 8.9 ± 0.6 days
